# Assays:
# [1] = target: T1, recombinant human Meningioma Expressed Antigen 5 (MGEA5), also referred to as O-GlcNAcase (OGA) (Homo sapiens, UniProt O60502); assay: OGA biochemical assay (inhibition of FM-GlcNAc hydrolysis, fluorescence); conditions: FM-GlcNAc substrate; for IC50: 6 h at room temperature, read-out: Enzymatic hOGA, pIC50 (converted); for Emax: maximal effect, read-out: Enzymatic Emax (%)
# T1 construct: Full length OGA enzyme was purchased at OriGene (cat #TP322411); purchased OriGene TP322411
# T1 sequence (O60502 1-916): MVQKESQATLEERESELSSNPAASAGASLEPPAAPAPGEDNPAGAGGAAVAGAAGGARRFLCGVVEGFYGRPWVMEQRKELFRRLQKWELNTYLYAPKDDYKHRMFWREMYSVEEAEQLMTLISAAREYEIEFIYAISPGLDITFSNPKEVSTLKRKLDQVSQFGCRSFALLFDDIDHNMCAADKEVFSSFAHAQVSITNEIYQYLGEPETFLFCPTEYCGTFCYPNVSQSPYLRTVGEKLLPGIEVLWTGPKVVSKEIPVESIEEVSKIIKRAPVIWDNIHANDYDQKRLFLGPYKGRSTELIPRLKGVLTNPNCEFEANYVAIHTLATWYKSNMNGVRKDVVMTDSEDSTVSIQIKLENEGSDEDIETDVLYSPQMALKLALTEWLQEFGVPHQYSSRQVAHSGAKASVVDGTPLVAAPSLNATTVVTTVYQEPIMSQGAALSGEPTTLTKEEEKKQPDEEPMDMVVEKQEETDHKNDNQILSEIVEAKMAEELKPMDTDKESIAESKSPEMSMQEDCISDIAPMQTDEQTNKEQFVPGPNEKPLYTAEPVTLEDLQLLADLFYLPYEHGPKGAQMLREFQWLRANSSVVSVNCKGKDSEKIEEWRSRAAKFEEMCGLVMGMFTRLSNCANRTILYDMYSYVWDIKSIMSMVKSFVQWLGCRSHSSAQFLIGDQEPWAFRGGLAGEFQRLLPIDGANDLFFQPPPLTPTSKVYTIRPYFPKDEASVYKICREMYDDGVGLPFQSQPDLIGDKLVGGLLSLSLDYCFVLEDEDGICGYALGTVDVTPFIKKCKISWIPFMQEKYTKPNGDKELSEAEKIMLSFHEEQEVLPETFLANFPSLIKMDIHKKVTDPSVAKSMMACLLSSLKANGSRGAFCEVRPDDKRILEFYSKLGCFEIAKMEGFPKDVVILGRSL
# How it was run: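 Full-length OGA (2 nM) pre-incubated 60 min at room temperature with compound, then FM-GlcNAc (100 uM final) hydrolysed 6 h at room temperature in 200 mM citrate/phosphate pH 7.2 with 0.005% Tween-20. Stopped with carbonate pH 11.0; fluorescein read at ex 485/em 538 nm. IC50 and Hill coefficient from curve fit between no-inhibitor and saturating-standard controls.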
# OGA = target: T2, OGA (Homo sapiens, UniProt O60502); assay: OGA cellular assay (ICC detection of O-GlcNAcylated proteins in HEK293 cells inducible for P301L mutant human Tau); type: cell-based; conditions: for Emax: HEK293, HEK293 cells inducible for P301L mutant human Tau, maximum = Thiamet G 200 uM; for EC50: HEK293 cells inducible for P301L mutant human Tau, 6 hours incubation, read-out: Cellular hOGA, pEC50 (converted)
# T2 construct: HEK293 cells inducible for P301L mutant human Tau (isoform 2N4R) were established at Janssen; endogenous in cells; host or cells: HEK293 cells inducible for P301L mutant human Tau (2N4R)
# T2 sequence (O60502 1-916): T1 sequence (O60502 1-916)
# How it was run: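 HEK293 cells inducible for P301L Tau (2N4R), seeded in low-glucose medium, treated with compound for 6 h at 0.2% DMSO. O-GlcNAc immunostained with CTD110.6 after PFA fixation; 488 nm intensity imaged, Hoechst nuclei counted for toxicity. IC50 by non-linear regression, 200 uM Thiamet G as maximum.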
IC50 [1] [nM],Emax [1] [%],melting point [°C],Emax (OGA) [%],EC50 (OGA) [nM],SMILES
1580,89,180.52,,,"Cc1cc(C[C@H]2CCCN(C(C)c3cnc4[nH]c(C)nc4c3)C2)cc(C)n1 (single isomer, unassigned) [Compound 6a]"
200,96,,59,631,Cc1cc(C[C@H]2CCCN(Cc3ccc4[nH]c(C)nc4n3)C2)cc(C)n1 [Compound 9]
3.98,101,,66,7.94,Cc1cc(OC[C@H]2CCCN(C(C)c3nc4nc(C)sc4cc3F)C2)cc(C)n1 (stereo partly drawn) [Compound 91]
398,96,,32,> 1000,Cc1cc(C[C@H]2CCN(C(C)c3cnc4[nH]c(C)nc4c3)C2)cc(C)n1 (stereo partly drawn) [Compound 102]
